PubChem BioAssay AID1963986 (Molecular Pharmacology Branch, DTP, NCI, 2024)

Test system: 171881-019-R-J1-PDC tumor spheroid viability
Test: Anticancer human tumor 171881-019-R-J1-PDC patient-derived invasive breast carcinoma cell line growth inhibition [PI3K]
Conditions: spheroids with HUVEC and MSC; for IC50: curve of first compound; for viability, T/C: stronger effect = lower value
In short: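 Tumor cells were combined with HUVEC and MSCs into spheroids, then dosed with PI3K-inhibitor combinations over half-log ranges capped near clinical Cmax or 10 microM.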
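Also: spheroids exposed to compound for 7 days before viability read.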
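For viability, T/C in this document: 100% = DMSO vehicle-treated spheroids.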

## Cn1cnc2c(F)c(Nc3ccc(Br)cc3Cl)c(C(=O)NOCCO)cc21 + CC(Nc1ncnc2nc[nH]c12)c1cc2cccc(Cl)c2c(=O)n1-c1ccccc1
Second compound 0.0316 µM
  IC50: 0.628 µM
Second compound 0.1 µM
  IC50: 0.664 µM
Second compound 0.316 µM
  IC50: 0.547 µM
Second compound 1 µM
  IC50: 0.423 µM
Second compound 3.16 µM
  IC50: 0.143 µM
Second compound 10 µM
  IC50: < 0.00949 µM
Second compound 0.0316 µM, first compound 0.00949 µM
  viability, T/C: 93.5%
Second compound 0.0316 µM, first compound 0.03 µM
  viability, T/C: 84%
Second compound 0.0316 µM, first compound 0.0949 µM
  viability, T/C: 89.2%
Second compound 0.0316 µM, first compound 0.3 µM
  viability, T/C: 63.5%
Second compound 0.0316 µM, first compound 0.949 µM
  viability, T/C: 42.2%
Second compound 0.0316 µM, first compound 3 µM
  viability, T/C: 19.5%
Second compound 0.1 µM, first compound 0.00949 µM
  viability, T/C: 87.3%
Second compound 0.1 µM, first compound 0.03 µM
  viability, T/C: 84.7%
Second compound 0.1 µM, first compound 0.0949 µM
  viability, T/C: 75%
Second compound 0.1 µM, first compound 0.3 µM
  viability, T/C: 70.8%
Second compound 0.1 µM, first compound 0.949 µM
  viability, T/C: 40.7%
Second compound 0.1 µM, first compound 3 µM
  viability, T/C: 18.3%
Second compound 0.316 µM, first compound 0.00949 µM
  viability, T/C: 96.6%
Second compound 0.316 µM, first compound 0.03 µM
  viability, T/C: 91%
Second compound 0.316 µM, first compound 0.0949 µM
  viability, T/C: 77.2%
Second compound 0.316 µM, first compound 0.3 µM
  viability, T/C: 63.2%
Second compound 0.316 µM, first compound 0.949 µM
  viability, T/C: 38.6%
Second compound 0.316 µM, first compound 3 µM
  viability, T/C: 17.5%
Second compound 1 µM, first compound 0.00949 µM
  viability, T/C: 88.9%
Second compound 1 µM, first compound 0.03 µM
  viability, T/C: 74.4%
Second compound 1 µM, first compound 0.0949 µM
  viability, T/C: 71.8%
Second compound 1 µM, first compound 0.3 µM
  viability, T/C: 57.9%
Second compound 1 µM, first compound 0.949 µM
  viability, T/C: 34.6%
Second compound 1 µM, first compound 3 µM
  viability, T/C: 15.4%
Second compound 3.16 µM, first compound 0.00949 µM
  viability, T/C: 74.4%
Second compound 3.16 µM, first compound 0.03 µM
  viability, T/C: 65.3%
Second compound 3.16 µM, first compound 0.0949 µM
  viability, T/C: 55.9%
Second compound 3.16 µM, first compound 0.3 µM
  viability, T/C: 40.5%
Second compound 3.16 µM, first compound 0.949 µM
  viability, T/C: 25.8%
Second compound 3.16 µM, first compound 3 µM
  viability, T/C: 9.87%
Second compound 10 µM, first compound 0.00949 µM
  viability, T/C: 46.2%
Second compound 10 µM, first compound 0.03 µM
  viability, T/C: 44.2%
Second compound 10 µM, first compound 0.0949 µM
  viability, T/C: 37.8%
Second compound 10 µM, first compound 0.3 µM
  viability, T/C: 31.2%
Second compound 10 µM, first compound 0.949 µM
  viability, T/C: 14.9%
Second compound 10 µM, first compound 3 µM
  viability, T/C: 4.91%

## Cn1nccc1Nc1nccc(-c2ccn(C(CO)c3ccc(Cl)c(F)c3)c(=O)c2)n1 (centres undefined) + CC(Nc1ccc2c(c1)OCCn1cc(N3C(=O)OCC3C(F)F)nc1-2)C(N)=O
Second compound 0.00316 µM
  IC50: 0.265 µM
Second compound 0.01 µM
  IC50: 0.113 µM
Second compound 0.0316 µM
  IC50: < 0.0316 µM
Second compound 0.1 µM
  IC50: < 0.0316 µM
Second compound 0.316 µM
  IC50: < 0.0316 µM
Second compound 1 µM
  IC50: < 0.0316 µM
Second compound 0.00316 µM, first compound 0.0316 µM
  viability, T/C: 92.5%
Second compound 0.00316 µM, first compound 0.1 µM
  viability, T/C: 67.2%
Second compound 0.00316 µM, first compound 0.316 µM
  viability, T/C: 46.7%
Second compound 0.00316 µM, first compound 1 µM
  viability, T/C: 33.7%
Second compound 0.00316 µM, first compound 3.16 µM
  viability, T/C: 22%
Second compound 0.00316 µM, first compound 10 µM
  viability, T/C: 19.2%
Second compound 0.01 µM, first compound 0.0316 µM
  viability, T/C: 69.6%
Second compound 0.01 µM, first compound 0.1 µM
  viability, T/C: 53.9%
Second compound 0.01 µM, first compound 0.316 µM
  viability, T/C: 30.6%
Second compound 0.01 µM, first compound 1 µM
  viability, T/C: 27.4%
Second compound 0.01 µM, first compound 3.16 µM
  viability, T/C: 18.2%
Second compound 0.01 µM, first compound 10 µM
  viability, T/C: 15%
Second compound 0.0316 µM, first compound 0.0316 µM
  viability, T/C: 47.4%
Second compound 0.0316 µM, first compound 0.1 µM
  viability, T/C: 37.9%
Second compound 0.0316 µM, first compound 0.316 µM
  viability, T/C: 23.1%
Second compound 0.0316 µM, first compound 1 µM
  viability, T/C: 17.1%
Second compound 0.0316 µM, first compound 3.16 µM
  viability, T/C: 11.8%
Second compound 0.0316 µM, first compound 10 µM
  viability, T/C: 9.67%
Second compound 0.1 µM, first compound 0.0316 µM
  viability, T/C: 33.5%
Second compound 0.1 µM, first compound 0.1 µM
  viability, T/C: 23.3%
Second compound 0.1 µM, first compound 0.316 µM
  viability, T/C: 15.9%
Second compound 0.1 µM, first compound 1 µM
  viability, T/C: 9.87%
Second compound 0.1 µM, first compound 3.16 µM
  viability, T/C: 7.9%
Second compound 0.1 µM, first compound 10 µM
  viability, T/C: 5.46%
Second compound 0.316 µM, first compound 0.0316 µM
  viability, T/C: 21.6%
Second compound 0.316 µM, first compound 0.1 µM
  viability, T/C: 16.9%
Second compound 0.316 µM, first compound 0.316 µM
  viability, T/C: 10.6%
Second compound 0.316 µM, first compound 1 µM
  viability, T/C: 6.63%
Second compound 0.316 µM, first compound 3.16 µM
  viability, T/C: 4.45%
Second compound 0.316 µM, first compound 10 µM
  viability, T/C: 2.82%
Second compound 1 µM, first compound 0.0316 µM
  viability, T/C: 18.3%
Second compound 1 µM, first compound 0.1 µM
  viability, T/C: 13.9%
Second compound 1 µM, first compound 0.316 µM
  viability, T/C: 7.66%
Second compound 1 µM, first compound 1 µM
  viability, T/C: 4.72%
Second compound 1 µM, first compound 3.16 µM
  viability, T/C: 3.76%
Second compound 1 µM, first compound 10 µM
  viability, T/C: 2.26%
